Data published in patent US10711007B2, “Selective inhibitors of protein arginine methyltransferase 5 (PRMT5)” (Prelude Therapeutics, Incorporated, priority 2018, dated 2020).

Experiments:
PRMT5/MEP50 complex = PRMT5/MEP50 complex (Homo sapiens (Human), UniProt O14744); assay: Biochemical assay: PRMT5/MEP50 methylation of histone H4 based AcH4-23, SPA readout; details: PRMT5/MEP50 2.5 nM, 300 nM AcH4-23, 1 μM 3H-SAM
Method: Biochemical Assay Protocol
Compounds were solubilized and 3-fold diluted in 100% DMSO. […] Standard reactions were performed in a total volume of 30 μl in assay buffer, with 300 nM histone H4 based AcH4-23 (Anaspec: AS-65002) as substrate. To this was added the PRMT5/MEP50 complex diluted to provide a final assay concentration of 2.5 nM and the compounds were allowed to preincubate for 20 minutes at 37° C. The reaction was initiated by adding S-[3H-methyl]-adenosyl-L-methionine (PerkinElmer: NET155001MC) to final concentration of 1 μM. Following a 30 minutes incubation at 37° C., the reaction was stopped by adding 25 μL of 8M Guanidine HCl. Prepare streptavidin YSI SPA beads (Perkinelmer: RPNQ0012) at 0.3 mg/mL in assay buffer. To each reaction, add 150 μL of SPA beads suspension, and incubated while shaking at room temperature for 30 minutes. The plate was centrifuged at 100×g for 30 second before reading in a scintillation counter. IC50 values were determined by fitting the data to the standard 4 parameters with Hill Slope using GraphPad Prism software.

[1] = system: sDMA marks (SmD3me2s) in U-87 MG cells; assay: Western blotting for symmetric di-methyl arginine (sDMA) marks in U-87 MG cells; type: cell-based; details: Homo sapiens, 72 h; U-87 MG cell line, 3 days
Method: Cell Treatment and Western Blotting for Detecting Symmetric Di-Methyl Arginine (sDMA) Marks
Compound Titration and Cell Culture:
Compounds were dissolved in DMSO to make 10 mM stock and 3-fold series dilutions were further conducted to make working stocks top at 1 mM. Granta-519 cells were maintained in PRMI 1640 (Corning Cellgro, Catalog #: 10-040-CV) supplemented with 10% v/v FBS (GE Healthcare, Catalog #: SH30910.03) and U-87 MG cells were maintained in DMEM (Corning Cellgro, Catalog #: 10-013-CV) with 10% FBS and 2 mM Glutamin (Corning Cellgro, Catalog #25005CV).
To determine enzyme inhibition IC50 values in Granta-519 and U-87 MG cells using Western Blot analysis. One day before experiment, Granta-519 cells were passaged to a density of 0.5×10^6 cells/ml. U-87 MG cells were trypsinized and 4×10^5 cells were seeded into 6-well plates and allow to grow overnight. The next day, Granta-519 cells were spun down at 1,500 rpm for 4 min, resuspend in fresh medium at 0.5×10^6 cells/ml and 3 mL of culture (1.5×10^6 cells) were seeded into 6 well plate. Eight-point, 3-fold serial dilutions of compound working stocks were added to cells (3 ul, 1:1,000 dilution, DMSO concentration was 0.1%; final top concentration at 1 uM) and incubated for 3 days. Cells incubated with DMSO was used as a vehicle control.
Cells were harvested 3 days later, resuspended in 15 uL PBS, lysed in 4% SDS, and homogenized by passing through homogenizer column (Omega Biotek, Catalog #: HCR003). Total protein concentrations were determined by BCA assay (ThermoFisher Scientific, Catalog #: 23225). Lysates were mixed with 5× Laemmli buffer and boiled for 5 min. Forty ug of total protein was separated on SDS-PAGE gels (Bio-Rad, catalog #: 4568083, 4568043), transferred to PVDF membrane, blocked with 5% dry milk (Bio-Rad, Catalog #: 1706404) in TBS with 0.1% v/v Tween 20 (TBST) for 1 hour at room temperature (RT), and incubated with primary antibodies (sDMA: Cell signaling, Catalog #: 13222, 1:3,000; β-Actin: sigma, Catalog #: 1:5,000) in 5% dry milk in TBST at 4° C. overnight. The next day, membranes were washed with TBST, 5×5 min, and incubated with HRP conjugated seconded antibody (GE Healthcare; Catalog #: NA934-1ML, NA931-1ML; 1:5,000) for 2 hours at RT, followed by 5×5 min washes with TBST, and incubation with ECL substrates (Bio-Rad, Catalog #: 1705061, 1705062). Chemiluminescent signal was captured with Fluochem HD2 imager (Proteinsimple). SmD3me2s bands were quantified by ImageJ. Signals were normalized to β-Actin and DMSO control. IC50 values were calculated using Graphpad Prism ([Inhibitor] vs. normalized response-Variable slope).

U-87 MG cells = assay: Cell proliferation assay (CCK-8, day 10) in U-87 MG cells; type: cell-based; details: Homo sapiens, 240 h, U-87 MG cell line, read-out: Prolif. IC50
Method: Cell Proliferation Assay to Determine IC50 in Granta-519 and U-87 MG Cells
One day before experiment, Granta-519 cells were passaged to a density of 0.5×10^6 cells/ml. U-87 MG cells were trypsinized and 2,000 cells were seeded into 96-well plates and allow to grow overnight. On the day of experiment (day 0), Granta-519 Cells were spun down at 1,500 rpm for 4 min, resuspended in fresh medium to 0.5×10^6 cells/ml and 190 ul of cells were added to 96 well plates. For U-87 MG cells, old medium was removed and replaced with 190 uL fresh medium. Compound working stocks were first diluted at 1:50 with fresh medium in 96 well plate and 10 μL of diluted drugs were added to 96 well plates containing cells and incubated for 3 days. DMSO was used a vehicle control.
One day 3, 50 uL of Granta-519 cells were transferred to a new 96-well plate and 140 uL fresh medium was added. For U-87 MG cells, old medium was removed and replaced with 190 uL fresh medium. Compound working stocks were freshly diluted at 1:50 with medium and 10 μL of diluted drugs were added to cells and grow for 3additional days. The same process was repeated on day 6. Cells were allowed to grow for additional 4 days.
On day 10, 100 uL Granta-519 cells were transferred to a new 96 well plate and 10 μL of Cell Counting Kit-8 (CCK-8, Jojindo, CK04-13) solution was added. For U-87 MG cells, old medium was removed and replaced with 100 uL fresh medium and 10 uL CCK-8 solution was added. Plates were incubated in CO2 incubator for 2 hours (Granta-519 cells) or 30 min (U-87 MG cells) and OD450 values were measured with a microplate reader (iMark microplate reader, Bio-Rad). Percentage of viable cells, relative to DMSO vehicle control, were calculated and plotted in Graphpad Prism ([Inhibitor] vs. normalized response-Variable slope) to determine proliferation IC50 values on day 10.

Chain of PRMT5/MEP50 complex (O14744 whole entry): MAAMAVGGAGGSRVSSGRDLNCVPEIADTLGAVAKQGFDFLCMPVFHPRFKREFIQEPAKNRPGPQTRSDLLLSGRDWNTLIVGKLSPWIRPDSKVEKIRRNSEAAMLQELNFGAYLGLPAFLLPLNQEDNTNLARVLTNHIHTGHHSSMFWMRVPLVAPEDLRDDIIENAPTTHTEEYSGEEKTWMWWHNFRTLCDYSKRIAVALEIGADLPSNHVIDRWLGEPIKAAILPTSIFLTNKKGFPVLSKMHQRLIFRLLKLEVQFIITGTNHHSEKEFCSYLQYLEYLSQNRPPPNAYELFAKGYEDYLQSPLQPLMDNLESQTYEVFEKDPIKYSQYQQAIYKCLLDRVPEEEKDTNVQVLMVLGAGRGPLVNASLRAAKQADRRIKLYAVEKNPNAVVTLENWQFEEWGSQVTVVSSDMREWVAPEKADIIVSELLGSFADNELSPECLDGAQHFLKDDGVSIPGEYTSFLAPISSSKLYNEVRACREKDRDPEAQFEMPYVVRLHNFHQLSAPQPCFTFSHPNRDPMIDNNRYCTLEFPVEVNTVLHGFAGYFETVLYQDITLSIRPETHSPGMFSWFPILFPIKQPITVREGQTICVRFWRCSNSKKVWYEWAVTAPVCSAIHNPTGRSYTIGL
Chain of PRMT5/MEP50 complex (Q9BQA1 whole entry partner): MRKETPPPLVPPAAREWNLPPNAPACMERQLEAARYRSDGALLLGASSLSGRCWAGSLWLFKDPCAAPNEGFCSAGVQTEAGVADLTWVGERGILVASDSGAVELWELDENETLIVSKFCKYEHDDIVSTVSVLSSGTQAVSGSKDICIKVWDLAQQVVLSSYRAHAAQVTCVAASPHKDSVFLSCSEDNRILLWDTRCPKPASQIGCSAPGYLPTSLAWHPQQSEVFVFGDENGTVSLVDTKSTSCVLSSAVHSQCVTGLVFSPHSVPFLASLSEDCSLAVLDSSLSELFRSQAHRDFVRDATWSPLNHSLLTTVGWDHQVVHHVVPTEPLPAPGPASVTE

| Compound | IC50 (PRMT5/MEP50 complex) | IC50 [1] | IC50 (U-87 MG cells) |
| --- | --- | --- | --- |
| Cc1ncnc2c1ccn2[C@@H]1O[C@H]([C@@H]2OCCc3ccc(Cl)cc32)[C@@H](O)[C@H]1O [Example 70, (2S,3S,4R,5R)-2-((R)-7-chloroisochroman-1-yl)-5-(4-methyl-7H-pyrrolo[2,3-d]pyrimidin-7-yl)tetrahydrofuran-3,4-diol] | 303 nM | 382 nM | 458 nM |
| Cc1ncnc2c1c(F)cn2[C@@H]1O[C@H]([C@@H]2OCCc3cc(Cl)ccc32)[C@@H](O)[C@H]1O [Example 85, (2S,3S,4R,5R)-2-((R)-6-chloroisochroman-1-yl)-5-(5-fluoro-4-methyl-7H-pyrrolo[2,3-d]pyrimidin-7-yl)tetrahydrofuran-3,4-diol] | 14.7 nM | 173 nM | 304 nM |
| Cc1ncnc2c1ccn2[C@@H]1O[C@H]([C@@H]2OCCc3cc(Cl)sc32)[C@@H](O)[C@H]1O [Example 89, (2S,3S,4R,5R)-2-((S)-2-chloro-4,7-dihydro-5H-thieno[2,3-c]pyran-7-yl)-5-(4-methyl-7H-pyrrolo[2,3-d]pyrimidin-7-yl)tetrahydrofuran-3,4-diol] | 15.7 nM | 84.4 nM | 179 nM |
| Cc1ncnc2c1ccn2[C@@H]1O[C@H]([C@@H]2OCOCc3cc(Cl)ccc32)[C@@H](O)[C@H]1O [Example 55, (2S,3S,4R,5R)-2-((R)-7-chloro-1,5-dihydrobenzo[e][1,3]dioxepin-1-yl)-5-(4-methyl-7H-pyrrolo[2,3-d]pyrimidin-7-yl)tetrahydrofuran-3,4-diol] | 11.7 nM | 4580 nM | 10000 nM |
| CNc1ncnc2c1ccn2[C@@H]1O[C@H]([C@@H]2OCCc3cc(Cl)ccc32)[C@@H](O)[C@H]1O [Example 69, (2S,3S,4R,5R)-2-((R)-6-chloroisochroman-1-yl)-5-(4-(methylamino)-7H-pyrrolo[2,3-d]pyrimidin-7-yl)tetrahydrofuran-3,4-diol] | 14.9 nM | 109 nM | 181 nM |
| Nc1ncnc2c1ccn2[C@@H]1O[C@H]([C@@H]2OCCc3ccc(Cl)cc32)[C@@H](O)[C@H]1O [Example 71, (2R,3R,4S,5S)-2-(4-amino-7H-pyrrolo[2,3-d]pyrimidin-7-yl)-5-((R)-7-chloroisochroman-1-yl)tetrahydrofuran-3,4-diol] | 6.2 nM | 29.7 nM | 73 nM |
| Cc1ncnc2c1ccn2[C@@H]1O[C@H]([C@@H]2NCCc3cc(Cl)ccc32)[C@@H](O)[C@H]1O [Example 98, (2R,3S,4R,5R)-2-[(1R)-6-chloro-1,2,3,4-tetrahydroisoquinolin-1-yl]-5-(4-methylpyrrolo[2,3-d]pyrimidin-7-yl)tetrahydrofuran-3,4-diol] | 11.9 nM | 579 nM | 662 nM |
| Cc1ncnc2c1ccn2[C@@H]1O[C@H]([C@@H]2OCCc3cc(F)c(F)cc32)[C@@H](O)[C@H]1O [Example 74, (2S,3S,4R,5R)-2-((R)-6,7-difluoroisochroman-1-yl)-5-(4-methyl-7H-pyrrolo[2,3-d]pyrimidin-7-yl)tetrahydrofuran-3,4-diol] | 7.28 nM |  | 66 nM |
| Nc1ncnc2c1ccn2[C@@H]1O[C@H]([C@@H]2OCCc3cc(F)c(F)cc32)[C@@H](O)[C@H]1O [Example 73, (2R,3R,4S,5S)-2-(4-amino-7H-pyrrolo[2,3-d]pyrimidin-7-yl)-5-((R)-6,7-difluoroisochroman-1-yl)tetrahydrofuran-3,4-diol] | 1.45 nM |  | 9.1 nM |
| Cc1ncnc2c1ccn2[C@@H]1O[C@H]([C@@H]2OCCc3c(Cl)cccc32)[C@@H](O)[C@H]1O [Example 75, (2S,3S,4R,5R)-2-((R)-5-chloroisochroman-1-yl)-5-(4-methyl-7H-pyrrolo[2,3-d]pyrimidin-7-yl)tetrahydrofuran-3,4-diol] | 15.1 nM |  | 339 nM |

Results, then the molecule that gave them:

| IC50 (PRMT5/MEP50 complex) | IC50 [1] | IC50 (U-87 MG cells) | Compound |
| --- | --- | --- | --- |
| 2.2 nM | 11.4 nM | 33.3 nM | Nc1ncnc2c1ccn2[C@@H]1O[C@H]([C@@H]2OCCc3cc(Cl)sc32)[C@@H](O)[C@H]1O [Example 90, (2R,3R,4S,5S)-2-(4-amino-7H-pyrrolo[2,3-d]pyrimidin-7-yl)-5-((S)-2-chloro-4,7-dihydro-5H-thieno[2,3-c]pyran-7-yl)tetrahydrofuran-3,4-diol] |
| 2 nM | 5.4 nM | 13 nM | Nc1ncnc2c1c(F)cn2[C@@H]1O[C@H]([C@@H]2OCCc3cc(Cl)ccc32)[C@@H](O)[C@H]1O [Example 86, (2R,3R,4S,5S)-2-(4-amino-5-fluoro-7H-pyrrolo[2,3-d]pyrimidin-7-yl)-5-((R)-6-chloroisochroman-1-yl)tetrahydrofuran-3,4-diol] |
| 1.6 nM | 18.5 nM | 60 nM | Nc1ncnc2c1ccn2[C@@H]1O[C@H]([C@@H]2OCCc3cc(Cl)c(Cl)cc32)[C@@H](O)[C@H]1O [Example 88, (2R,3R,4S,5S)-2-(4-amino-7H-pyrrolo[2,3-d]pyrimidin-7-yl)-5-((R)-6,7-dichloroisochroman-1-yl)tetrahydrofuran-3,4-diol] |
| 2.98 nM |  | 78 nM | Nc1ncnc2c1ccn2[C@@H]1O[C@H]([C@@H]2OCCc3c(Cl)cccc32)[C@@H](O)[C@H]1O [Example 72, (2R,3R,4S,5S)-2-(4-amino-7H-pyrrolo[2,3-d]pyrimidin-7-yl)-5-((R)-5-chloroisochroman-1-yl)tetrahydrofuran-3,4-diol] |
| 4.8 nM | 17.6 nM | 54 nM | Cc1ncnc2c1ccn2[C@@H]1O[C@H]([C@@H]2OCCc3cc(Cl)ccc32)[C@@H](O)[C@H]1O [Example 22, (2S,3S,4R,5R)-2-((R)-6-chloroisochroman-1-yl)-5-(4-methyl-7H-pyrrolo[2,3-d]pyrimidin-7-yl)tetrahydrofuran-3,4-diol] |
